Measured values taken from ChEMBL document CHEMBL3352543, “Synthesis and structure-activity relationship of novel cinnamamide derivatives as antidepressant agents” (Bioorg Med Chem Lett, 2014).

Experiments:
[1] = Solubility in water; format: physicochemical; details: buffer
[2] = test system: Mus musculus; experiment: Toxic CNS activity in C57BL/6 mouse assessed as locomotor activity by measuring exploratory activity counts at 10 mg/kg, ig by open-field test (reference value: 94.50 +/- 6.18 counts); format: toxicity, organism-based; set-up: dose 10 mg/kg, route intragastric; details: in vivo, po
[3] = test system: Mus musculus; experiment: Antidepressant activity in C57BL/6 mouse assessed as decrease in immobility duration at 10 mg/kg, ig by tail suspension test; format: functional; details: C57BL/6, Tail, po, route intragastric
[4] = test system: Mus musculus; experiment: Antidepressant activity in C57BL/6 mouse assessed as decrease in immobility duration at 10 mg/kg, ig by forced swim test; format: functional; details: C57BL/6, po, route intragastric
[5] = test system: Mus musculus; experiment: Antidepressant activity in C57BL/6 mouse assessed as decrease in immobility duration at 5 mg/kg, ig by forced swim test; format: functional; details: C57BL/6, po, route intragastric
[6] = test system: Mus musculus; experiment: Antidepressant activity in C57BL/6 mouse assessed as decrease in immobility duration at 2.5 mg/kg, ig by forced swim test; format: functional; details: C57BL/6, po, route intragastric
[7] = test system: Mus musculus; experiment: Antidepressant activity in ig dosed C57BL/6 mouse assessed as decrease in immobility duration by forced swim test; format: functional, organism-based
[8] = test system: Mus musculus; experiment: Antidepressant activity in ig dosed C57BL/6 mouse assessed as decrease in immobility duration by tail suspension test; format: functional, organism-based

CN1CCN(C(=O)/C=C/c2cc3c(c(C(F)(F)F)c2)OCO3)CC1
solubility [1]: soluble
Activity [2]: 86.2
inhibition in vivo at 10 mg/kg [3]: 24%

COc1cc(/C=C/C(=O)NCC(C)C)cc2c1OCO2
Activity [2]: 100.92
inhibition in vivo at 10 mg/kg [3]: 11.7%

CCN(CC)C(=O)/C=C/c1cc2c(c(C(F)(F)F)c1)OCO2
Activity [2]: 95.3
inhibition in vivo at 10 mg/kg [3]: 40.2%

CC(C)CNC(=O)CCc1cc2c(c(C(F)(F)F)c1)OCO2
Activity [2]: 86.6
inhibition in vivo at 10 mg/kg [3]: 28.8%

CNCCC(Oc1ccc(C(F)(F)F)cc1)c1ccccc1 (stereo not drawn) [FLUOXETINE]
Activity [2]: 102
inhibition in vivo at 10 mg/kg [4]: 29%
inhibition in vivo at 10 mg/kg [3]: 39.4%

O=C(/C=C/c1cc2c(c(C(F)(F)F)c1)OCO2)N1CCNCC1
solubility [1]: soluble
Activity [2]: 91.54
inhibition in vivo at 10 mg/kg [3]: 21.8%

CC(C)CNC(=O)/C=C/c1cc(I)c2c(c1)OCO2
Activity [2]: 94.42
inhibition in vivo at 10 mg/kg [3]: 15.1%

CC(C)CNC(=O)/C=C/c1cc(Cl)c2c(c1)OCO2
Activity [2]: 94.75
inhibition in vivo at 10 mg/kg [3]: 29.1%

CC(C)CNC(=O)c1cc2c(c(C(F)(F)F)c1)OCO2
Activity [2]: 93.2
inhibition in vivo at 10 mg/kg [3]: 33.1%

CN(C)C(=O)/C=C/c1cc2c(c(C(F)(F)F)c1)OCO2
Activity [2]: 84
inhibition in vivo at 10 mg/kg [3]: 12.6%

O=C(c1cc2c(c(C(F)(F)F)c1)OCO2)N1CCCCC1
Activity [2]: 87.4
inhibition in vivo at 10 mg/kg [3]: 37.1%

CC(C)CNC(=O)/C=C/c1cc2c(c(C(F)(F)F)c1)OCO2
inhibition in vivo at 5 mg/kg [5]: 34.4%
inhibition in vivo at 2.5 mg/kg [6]: 20.8%
inhibition [7]: Dose-dependent effect
inhibition [8]: Dose-dependent effect
Activity [2]: 99.4
inhibition in vivo at 10 mg/kg [4]: 43.5%
inhibition in vivo at 10 mg/kg [3]: 42.5%

CC(C)CNC(=O)/C=C/c1ccc2c(c1)OCO2 [FOGARAMIDE]
Activity [2]: 89.24
inhibition in vivo at 10 mg/kg [3]: 13.2%

CC(C)CNC(=O)/C=C/c1cc2c(c([N+](=O)[O-])c1)OCO2
Activity [2]: 98
inhibition in vivo at 10 mg/kg [3]: 6.4%

O=C(/C=C/c1cc2c(c(C(F)(F)F)c1)OCO2)N1CCCCC1
Activity [2]: 83.6
inhibition in vivo at 10 mg/kg [3]: 31.5%
